The text below walks through data of BindingDB's records for patent US20250326790 (University of Southampton, 2025).

Where a SMILES comes first, the peptide text is derived from it. [ ]: non-standard residue; d: D form. The star is where a group is joined. Phe(4-I) = N[C@@H](Cc1ccc(I)cc1)C(=O)O; hLeu = CC(C)CC[C@H](N)C(=O)O; Isobutyryl = CC(C)C(=O)* Where only a bound is given, the exact number is not on record here.

For the test, the target named is T1, Hypoxia-inducible factor 1-alpha [228-298] (Homo sapiens, UniProt Q16665).
T1 construct: 228-298
Put plainly: Assessment of HIF-1α and 2α Binding Activity in In Vitro Assays.

T1 sequence (Q16665 whole entry): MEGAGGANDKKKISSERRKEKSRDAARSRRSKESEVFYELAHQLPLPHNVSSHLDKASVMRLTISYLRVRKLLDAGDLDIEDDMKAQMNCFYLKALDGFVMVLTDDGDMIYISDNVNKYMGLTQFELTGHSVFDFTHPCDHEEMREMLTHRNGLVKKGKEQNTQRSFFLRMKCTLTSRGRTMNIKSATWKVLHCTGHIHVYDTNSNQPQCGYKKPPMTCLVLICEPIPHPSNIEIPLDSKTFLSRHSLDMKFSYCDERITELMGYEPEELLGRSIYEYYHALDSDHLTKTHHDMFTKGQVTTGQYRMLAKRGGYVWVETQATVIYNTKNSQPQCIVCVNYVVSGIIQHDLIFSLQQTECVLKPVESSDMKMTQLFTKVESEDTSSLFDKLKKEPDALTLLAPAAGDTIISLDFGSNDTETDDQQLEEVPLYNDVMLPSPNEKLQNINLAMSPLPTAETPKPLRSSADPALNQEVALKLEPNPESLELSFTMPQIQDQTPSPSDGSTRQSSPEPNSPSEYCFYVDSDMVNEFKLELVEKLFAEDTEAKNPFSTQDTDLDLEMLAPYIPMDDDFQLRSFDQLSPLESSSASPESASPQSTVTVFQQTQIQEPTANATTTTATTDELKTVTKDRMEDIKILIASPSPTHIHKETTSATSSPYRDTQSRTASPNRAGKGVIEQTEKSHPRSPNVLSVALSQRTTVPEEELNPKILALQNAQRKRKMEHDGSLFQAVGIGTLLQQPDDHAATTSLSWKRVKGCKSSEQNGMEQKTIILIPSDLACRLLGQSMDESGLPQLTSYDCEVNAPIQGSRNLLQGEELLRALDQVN
Experimental: MST experiments were performed on a Monolith NT.115 system (Nanotemper Technologies GmbH), in assay buffer containing 50 nM labelled protein, 10% DMSO and 0.05% TWEEN-20. MST measurements were performed using 50% LED and 50% MST power.

`CC(C)CC[C@H](NC(=O)C(C)C)C(=O)N[C@@H](Cc1ccc(I)cc1)C(=O)N[C@@H](CS)C(N)=O` [US20250326790, Example 1] (Isobutyryl-[hLeu]-[Phe(4-I)]-Cys-NH2): the Kd (usually the constant that tells how readily two partners part at equilibrium) was > 40 µM. As for `CC(C)CC[C@H](NS(=O)(=O)c1ccc(Cl)s1)C(=O)N[C@@H](Cc1ccc(I)cc1)C(=O)N[C@@H](CS)C(=O)NCCCCCCN` [US20250326790, Example 41], the figure is > 100 µM.
